Here are results for three compounds from patent EP4700095A1, “INK COMPOSITION FOR INK-JET PRINTING” (Sakata INX Corporation, priority 2023, dated 2024).

This data set can be described thus: SP value (solubility parameter) calculated by formula 1. The conditions noted are these: 25°C (298 K), formula {(ΔH - RT)/(M/D)}^1/2.
For the compound `OCC(O)CO` [Glycerin, glycerin], the SP value was 14.9 (cal/cm^3)^1/2.

Regarding `CC(O)CO` (stereo not drawn) [Propylene glycol, 1,2-propanediol], the SP value is reported as 12.6 (cal/cm^3)^1/2.

With `CC(O)COC(C)COC(C)CO` (stereo not drawn) [Tripropylene glycol], the SP value is given as 11.3 (cal/cm^3)^1/2.
